Assay results from patent US20080021012A1, “3-[4-{6-Substituted Alkanoyl Pyridin-3-Yl}-3-Phenyl]-5-(1H-1,2,3-Triazol-1-Ylmethyl)-1,3-Oxazolidin-2-Ones As Antibacterial Agents” (ASTRAZENECA AB, priority 2004, published 2008).
≈ marks a conversion by molar mass, not a printed value. Where a name gives a salt, the structure may show the parent alone.

Key:
physchem = settings: pH 7.4, aqueous buffer, thermodynamic from solid
Description: It will be understood that parameters such as solubility may be measured by any suitable technique known in the art.

[1] = test system: Staphylococcus aureus MSQS; assay: MIC, agar-dilution, Staphylococcus aureus MSQS; format: cell-based; settings: Staphylococcus aureus MSQS (methicillin sensitive and quinolone sensitive), 10^4 CFU/spot, 37° C., 24 hours
Description: (§1) The following results were obtained on a standard in-vitro test system. The activity is described in terms of the minimum inhibitory concentration (MIC) determined by the agar-dilution technique with an inoculum size of 10^4 CFU/spot. Typically, compounds are active in the range 0.01 to 256 μg/ml.
(§2) Staphylococci were tested on agar, using an inoculum of 10^4 CFU/spot and an incubation temperature of 37° C. for 24 hours—standard test conditions for the expression of methicillin resistance.

[2] = test system: Staphylococcus aureus MRQR; assay: MIC, agar-dilution, Staphylococcus aureus MRQR; format: cell-based; settings: Staphylococcus aureus MRQR (methicillin resistant and quinolone resistant), 10^4 CFU/spot, 37° C., 24 hours
Description: as §1, §2

Streptococcus pneumoniae = assay: MIC, agar-dilution, Streptococcus pneumoniae; format: cell-based; settings: agar with 5% defibrinated horse blood, 37° C., 5% carbon dioxide, 48 hours
Description: as §1
(§3) Streptococci and enterococci were tested on agar supplemented with 5% defibrinated horse blood, an inoculum of 10^4 CFU/spot and an incubation temperature of 37° C. in an atmosphere of 5% carbon dioxide for 48 hours—blood is required for the growth of some of the test organisms. Fastidious Gram negative organisms were tested in Mueller-Hinton broth, supplemented with hemin and NAD, grown aerobically for 24 hours at 37° C., and with an innoculum of 5×10^4 CFU/well.

Haemophilus influenzae = assay: MIC, Haemophilus influenzae; format: cell-based; settings: Mueller-Hinton broth with hemin and NAD, 24 hours, 37° C.
Description: as §1, §3

Moraxella catarrhalis = assay: MIC, Moraxella catarrhalis; format: cell-based; settings: Mueller-Hinton broth with hemin and NAD, 24 hours, 37° C.
Description: as §1, §3

[3] = test system: Linezolid Resistant Streptococcus pneumoniae; assay: MIC, Linezolid Resistant Streptococcus pneumoniae; format: cell-based
Description: as §1, §3

MAO-A = target: T1, MAO-A (Homo sapiens, UniProt P21397); assay: MAO-A inhibition, standard in-vitro assay; format: biochemical; settings: human liver enzyme expressed in yeast
T1 construct: made in house; host or cells: yeast
T1 sequence (P21397 1-527): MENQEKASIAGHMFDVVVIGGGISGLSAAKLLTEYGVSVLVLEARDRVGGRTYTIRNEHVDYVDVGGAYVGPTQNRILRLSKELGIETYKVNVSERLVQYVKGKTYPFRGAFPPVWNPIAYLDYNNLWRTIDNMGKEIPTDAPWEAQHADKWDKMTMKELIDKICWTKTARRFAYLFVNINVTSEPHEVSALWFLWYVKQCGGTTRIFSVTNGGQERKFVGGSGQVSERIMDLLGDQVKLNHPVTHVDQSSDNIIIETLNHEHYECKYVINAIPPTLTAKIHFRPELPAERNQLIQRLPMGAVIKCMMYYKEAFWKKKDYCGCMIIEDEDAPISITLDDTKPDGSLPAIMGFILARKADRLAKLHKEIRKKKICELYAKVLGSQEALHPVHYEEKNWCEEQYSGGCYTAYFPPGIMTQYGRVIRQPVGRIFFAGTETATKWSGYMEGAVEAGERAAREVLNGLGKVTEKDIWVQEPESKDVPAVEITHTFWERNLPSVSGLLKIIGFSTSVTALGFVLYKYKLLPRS
Description: Inhibition of mono-amine oxidase (MAO) is a known potential side effect of oxazolidinone antibiotics (see for example WO 03/072575).
The activity of the compounds of the invention against MAO-A was tested using a standard in-vitro assay based on human liver enzyme expressed in yeast as described in Biochem. Biophys. Res. Commun. 1991, 181, 1084-1088. Compounds of the invention typically give Ki values of >5 μM when measured in such an assay as above.

SMILES	melting point	Ki (MAO-A)	further results
O=C(Cn1ccnc1)c1ccc(-c2ccc(N3C[C@H](Cn4ccnn4)OC3=O)cc2F)cn1 (as salt: hydrochloride) [Example 1, (5R)-3-{3-Fluoro-4-[6-(1H-imidazol-1-ylacetyl)pyridin-3-yl]phenyl}-5-(1H-1,2,3-triazol-1-ylmethyl)-1,3-oxazolidin-2-one]	> 230 °C (dec.)		
Cc1nccn1CC(=O)c1ccc(-c2ccc(N3C[C@H](Cn4ccnn4)OC3=O)cc2F)cn1 (as salt: hydrochloride) [Example 4]	> 240 °C (dec.)		
Cc1cn(CC(=O)c2ccc(-c3ccc(N4C[C@H](Cn5ccnn5)OC4=O)cc3F)cn2)cn1 (as salt: hydrochloride) [Example 5, (5R)-3-(3-Fluoro-4-{6-[(4-methyl-1H-imidazol-1-yl)acetyl]pyridin-3-yl}phenyl)-5-(1H-1,2,3-triazol-1-ylmethyl)-1,3oxazolidin-2-one]	> 217 °C (dec.)		
O=C(CC1CCNCC1)c1ccc(-c2ccc(N3C[C@H](Cn4ccnn4)OC3=O)cc2F)cn1 (as salt: hydrochloride) [Example 6, (5R)-3-{3-Fluoro-4-[6(piperidin-4-ylacetyl)pyridin-3-yl]phenyl}-5-(1H-1,2,3-triazol-1-ylmethyl)-1,3-oxazolidin-2-one]	> 196 °C (dec.)		
O=C(c1ccc(-c2ccc(N3C[C@H](Cn4ccnn4)OC3=O)cc2F)cn1)C1CCNCC1 (as salt: hydrochloride) [Example 8, (5R)-3-{3-Fluoro-4-[6-(piperidin-4-ylcarbonyl)pyridin-3-yl]phenyl}-5-(1H-1,2,3-triazol-1-ylmethyl)-1,3-oxazolidin-2-one]	> 275 °C (dec.)		
O=C(c1ccc(-c2ccc(N3C[C@H](Cn4ccnn4)OC3=O)cc2F)cn1)C1CNC1 (as salt: hydrochloride) [Example 9, (5R)-3-{4-[6-(Azetidin-3-ylcarbonyl)pyridin-3-yl]-3-fluorophenyl}-5-(1H-1,2,3-triazol-1-ylmethyl)-1,3-oxazolidin-2-one]	> 90 °C (dec.)		
O=C(Cn1ccnc1)c1ccc(-c2ccc(N3C[C@H](Cn4ccnn4)OC3=O)cc2F)cn1 [Example 1, (5R)-3-{3-Fluoro-4-[6-(1H-imidazol-1-ylacetyl)pyridin-3-yl]phenyl}-5-(1H-1,2,3-triazol-1-ylmethyl)-1,3-oxazolidin-2-one]		> 5000 nM	solubility (physchem): 1450 µM (≈ 650 µg/mL); MIC [1]: 0.25 µg/mL (≈ 0.559 µM); MIC [2]: 0.25 µg/mL (≈ 0.559 µM); MIC (Streptococcus pneumoniae): 0.13 µg/mL (≈ 0.291 µM); MIC (Haemophilus influenzae): 2 µg/mL (≈ 4.47 µM); MIC (Moraxella catarrhalis): 0.5 µg/mL (≈ 1.12 µM); MIC [3]: 0.5 µg/mL (≈ 1.12 µM)
O=C(CCCN1CCOCC1)c1ccc(-c2ccc(N3C[C@H](Cn4ccnn4)OC3=O)cc2F)cn1 [Example 2, (5R)-3-{3-Fluoro-4-[6-(4-morpholin-4-ylbutanoyl)pyridin-3-yl]phenyl}-5-(1H-1,2,3-triazol-1-ylmethyl)-1,3-oxazolidin-2-one]		15000 nM	
CC(C)(C)O/N=C/c1ccc(-c2ccc(N3C[C@H](Cn4ccnn4)OC3=O)cc2F)cn1 [Example 3]	192 °C	6400 nM	
CCCc1nccn1CC(=O)c1ccc(-c2ccc(N3C[C@H](Cn4ccnn4)OC3=O)cc2F)cn1 [Example 11]	81 °C		
CC(C)c1nccn1CC(=O)c1ccc(-c2ccc(N3C[C@H](Cn4ccnn4)OC3=O)cc2F)cn1 [Example 12]	82 to 83 °C		
Cc1cn(CC(=O)c2ccc(-c3ccc(N4C[C@H](Cn5ccnn5)OC4=O)cc3F)cn2)c(C)n1 [Example 13, (5R)-3-(4-{6-[(2,4-Dimethyl-1H-imidazol-1-yl)acetyl]pyridin-3-yl}-3-fluorophenyl)-5-(1H-1,2,3-triazol-1-ylmethyl)-1,3-oxazolidin-2-one]	78 °C		
CCc1nccn1CC(=O)c1ccc(-c2ccc(N3C[C@H](Cn4ccnn4)OC3=O)cc2F)cn1 [Example 14, (5R)-3-(4-{6-[(2-Ethyl-1H-imidazol-1-yl)acetyl]pyridin-3-yl}-3-fluorophenyl)-5-(1H-1,2,3-triazol-1-ylmethyl)-1,3-oxazolidin-2-one]	77 to 79 °C		
COCc1nccn1CC(=O)c1ccc(-c2ccc(N3C[C@H](Cn4ccnn4)OC3=O)cc2F)cn1 [Example 15, (5R)-3-[3-Fluoro-4-(6-{[2-(methoxymethyl)-1H-imidazol-1-yl]acetyl}pyridin-3-yl)phenyl]-5-(1H-1,2,3-triazol-1-ylmethyl)-1,3-oxazolidin-2-one]	78 to 80 °C		
CC(=O)c1ccc(-c2ccc(N3C[C@H](Cn4ccnn4)OC3=O)cc2F)cn1 [Ref Example 1, (5R)-3-[4-(6-Acetylpyridin-3-yl)-3-fluorophenyl]-5-(1H-1,2,3-triazol-1-ylmethyl)-1,3-oxazolidin-2-one]	> 210 °C (dec.)	720 nM	
O=Cc1ccc(-c2ccc(N3C[C@H](Cn4ccnn4)OC3=O)cc2F)cn1 [Ref Example 2, 5-{2-Fluoro4-[(5R)-2-oxo-5-(1H-1,2,3-triazol-1-ylmethyl)-1,3-oxazolidin-3-yl]phenyl}pyridine-2-carbaldehyde]	> 180 °C (dec.)	700 nM	
O=C1O[C@@H](Cn2ccnn2)CN1c1ccc(-c2ccc(/C=N/O)nc2)c(F)c1 [Ref Example 3, 5-{2-Fluoro-4-[(5R)-2-oxo-5-(1H-1,2,3-triazol-1-ylmethyl)-1,3-oxazolidin-3-yl]phenyl}pyridine-2-carbaldehyde oxime]	> 230 °C (dec.)	< 300 nM	
CC(=O)NC[C@H]1CN(c2ccc(-c3ccc(-c4nnn(C)n4)nc3)c(F)c2)C(=O)O1 [Reference Example 4]			solubility thermodynamic (physchem): 35.1 µM (≈ 14.4 µg/mL)
Cn1nnc(-c2ccc(-c3ccc(N4C[C@H](Cn5ccnn5)OC4=O)cc3F)cn2)n1 [Reference Example 5, (5R)-3-(3-Fluoro-4-(6-(2-methyl-2H-tetrazol-5-yl)pyrid-3-yl)phenyl)-5-(1H-1,2,3-triazol-1-ylmethyl)-1,3-oxazolidin-2-one]			solubility thermodynamic (physchem): < 7.1 µM
